Series [1] concerns MOLM-13 cells. The series is described as follows: Proliferation assay, MOLM-13 (CellTiter-Glo, 7 days). The format is cell-based, human. The conditions noted are these: Homo sapiens, MOLM-13, 168 h. In short, it runs like this: (§1)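 Cells seeded at 125 (MOLM-13), 300 (MV4;11), 75 (OCI-AML3) or 200 (HEL) per well were exposed to 3.16-fold compound dilutions (0.1% DMSO) for 7 days at 37° C. Viability by CellTiter-Glo luminescence, normalized to DMSO (100%) and day-0 plate (0%); IC50 from one-site dose-response fit.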
In general terms: ATP-based viability assays read luminescence as a measure of living cells.

Series [2] addresses hERG (Homo sapiens (Human), UniProt Q12809). The series is described as follows: hERG assay 1 (standard), SyncroPatch 384PE. The conditions noted are these: CHO cells, room temperature, up to 40 uM. The series is classed as cell-based. In short, it runs like this: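 Automated patch clamp on hERG-expressing CHO-K1 cells at room temperature, +60/−40 mV protocol every 15 s. Six-point cumulative concentrations 139 nM to 40 uM (0.33% DMSO final); IC50 from one-site fit of % inhibition. Wells required ≥30 MegaOhm seal, current >0.2 nA, Z prime >0.4.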
(In general: Block of hERG is tested as a sign of cardiac risk.)

For series [3], the system named is MV4;11 cells. Nature of the series: Proliferation assay, MV4;11 (CellTiter-Glo, 7 days). The conditions noted are these: Homo sapiens, MV4-11, 168 h, read-out: MV-4-11 IC50. The format is cell-based, human. In short, it runs like this:
as §1

Series [4] in a line: Human liver microsomes (HLMs) intrinsic clearance assay. The series is classed as in vitro ADME. The settings on record: human, microsomes. (In general: Liver microsomes are vesicles of endoplasmic reticulum, rich in cytochrome P450 enzymes.)
Setting [5] is: pH 7.4, 1 mg/mL HLM, NADPH, read-out: HLM CLint.

Each structure is given as a SMILES string. Read-outs that look alike come from different tables or passages of the source.

hERG, sequence (Q12809 whole entry): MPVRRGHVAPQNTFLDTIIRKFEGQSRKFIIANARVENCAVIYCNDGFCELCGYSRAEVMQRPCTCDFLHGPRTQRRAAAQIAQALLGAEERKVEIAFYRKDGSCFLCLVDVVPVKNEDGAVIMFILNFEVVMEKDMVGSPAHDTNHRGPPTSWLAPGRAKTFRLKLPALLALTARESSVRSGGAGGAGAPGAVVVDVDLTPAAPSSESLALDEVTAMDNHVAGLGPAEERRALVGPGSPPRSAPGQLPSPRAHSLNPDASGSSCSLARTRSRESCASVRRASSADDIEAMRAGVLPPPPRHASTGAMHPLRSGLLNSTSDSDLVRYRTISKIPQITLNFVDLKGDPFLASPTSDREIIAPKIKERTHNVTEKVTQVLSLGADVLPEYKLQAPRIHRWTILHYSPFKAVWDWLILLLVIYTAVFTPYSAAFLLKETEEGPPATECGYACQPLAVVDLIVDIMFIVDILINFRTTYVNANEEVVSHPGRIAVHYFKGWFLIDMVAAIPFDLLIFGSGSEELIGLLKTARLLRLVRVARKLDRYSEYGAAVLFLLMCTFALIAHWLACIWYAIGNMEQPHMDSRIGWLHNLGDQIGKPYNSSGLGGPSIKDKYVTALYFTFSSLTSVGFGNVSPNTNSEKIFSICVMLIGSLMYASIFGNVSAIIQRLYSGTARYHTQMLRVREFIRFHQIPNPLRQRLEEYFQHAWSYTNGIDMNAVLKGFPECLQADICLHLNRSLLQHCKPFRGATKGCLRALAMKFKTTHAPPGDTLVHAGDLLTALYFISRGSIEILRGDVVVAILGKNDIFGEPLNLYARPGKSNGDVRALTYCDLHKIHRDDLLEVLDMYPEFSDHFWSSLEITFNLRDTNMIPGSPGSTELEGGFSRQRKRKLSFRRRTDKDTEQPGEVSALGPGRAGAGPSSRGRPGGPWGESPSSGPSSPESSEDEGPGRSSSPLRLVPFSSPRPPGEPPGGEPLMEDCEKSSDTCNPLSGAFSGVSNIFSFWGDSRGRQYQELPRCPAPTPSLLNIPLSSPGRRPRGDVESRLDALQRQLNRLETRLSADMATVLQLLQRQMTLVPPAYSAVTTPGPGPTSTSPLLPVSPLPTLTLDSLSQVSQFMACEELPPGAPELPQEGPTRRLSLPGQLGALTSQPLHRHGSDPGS

As to `C=C1C[C@@H]2CC[C@H]1[C@@H](C(=O)N1CCC(C(=O)c3cn(-c4ccc(F)cc4C(=O)N(C(C)C)C(C)C)c4cnccc34)CC1)N2` [Example 18, 5-Fluoro-N,N-diisopropyl-2-(3-(1-((1S,3S,4R)-5-methylene-2-azabicyclo[2.2.2]-octane-3-carbonyl)piperidine-4-carbonyl)-1H-pyrrolo[2,3-c]pyridin-1-yl)benzamide], the IC50 in series [1] was 57 nM; in series [2], over 40000 nM; in series [3], 44 nM. In series [4] (pH 7.4, HLM CLint), this compound returned a microsomal CLint at 1 µM of 172 µL/min/mg.
Taken in the same sequence, the figures for `CC(C)N(C(=O)c1cc(F)ccc1-n1cc(C(=O)C2CCN(C(=O)[C@H]3NC[C@@H]4C[C@@H]43)CC2)c2ccncc21)C(C)C` [Example 19, 2-(3-(1-((1S,2S,5R)-3-Azabicyclo[3.1.0]hexane-2-carbonyl)piperidine-4-carbonyl)-1H-pyrrolo[2,3-c]pyridin-1-yl)-5-fluoro-N,N-diisopropylbenzamide] were 34 nM, over 40000 nM, 25 nM and 56 µL/min/mg.
As for `CC(C)N(C(=O)c1cc(F)ccc1-n1cc(C(=O)C2CCN(C(=O)[C@H]3NC4CCC3CC4)CC2)c2ccncc21)C(C)C` [Example 20, (S)-2-(3-(1-(2-Azabicyclo[2.2.2]octane-3-carbonyl)piperidine-4-carbonyl)-1H-pyrrolo[2,3-c]pyridin-1-yl)-5-fluoro-N,N-diisopropylbenzamide], the IC50 is 40 nM in series [1], over 40000 nM in series [2] and 25 nM in series [3]. The compound also yielded a microsomal CLint at 1 µM in series [4] (pH 7.4, HLM CLint) of 27 µL/min/mg.
As to `CC(C)N(C(=O)c1cc(F)ccc1-n1cc(C(=O)C2CCN(C(=O)[C@H]3NC[C@@H]4CCC[C@@H]43)CC2)c2ccncc21)C(C)C` [Example 21, 5-Fluoro-N,N-diisopropyl-2-(3-(1-((1S,3αR,6αS)-octahydrocyclopenta[c]pyrrole-1-carbonyl)piperidine-4-carbonyl)-1H-pyrrolo[2,3-c]pyridin-1-yl)benzamide], the IC50 was 34 nM in series [1], over 40000 nM in series [2] and 27 nM in series [3]. In series [4] (pH 7.4, HLM CLint), the microsomal CLint at 1 µM was determined as 197 µL/min/mg.
Taken in the same sequence, the figures for `CC(C)N(C(=O)c1cc(F)ccc1-n1cc(C(=O)C2CCN(C(=O)[C@H]3N[C@H]4C[C@@H]3[C@@H](F)C4)CC2)c2ccncc21)C(C)C` [Example 22, 5-Fluoro-2-(3-(1-((1S,3S,4S,5S)-5-fluoro-2-azabicyclo[2.2.1]heptane-3-carbonyl)piperidine-4-carbonyl)-1H-pyrrolo[2,3-c]pyridin-1-yl)-N,N-diisopropylbenzamide] were 30 nM, over 40000 nM, 17 nM and 91 µL/min/mg.
Regarding `CC(C)N(C(=O)c1cc(F)ccc1-n1cc(C(=O)C2CCN(C(=O)[C@@H]3CCC4(CC4)N3)CC2)c2ccncc21)C(C)C` [Example 24, (S)-2-(3-(1-(4-Azaspiro[2.4]heptane-5-carbonyl)piperidine-4-carbonyl)-1H-pyrrolo[2,3-c]pyridin-1-yl)-5-fluoro-N,N-diisopropylbenzamide], the IC50 was 32 nM in series [1], 38300 nM in series [2] and 20 nM in series [3]. Also, in series [4] (setting [5]), the microsomal CLint at 1 µM was determined as 145 µL/min/mg.
With `CC(C)N(C(=O)c1cc(F)ccc1-n1cc(C(=O)C2CCN(C(=O)[C@@H]3CC4(CC4)CN3)CC2)c2ccncc21)C(C)C` [Example 26, (S)-2-(3-(1-(5-Azaspiro[2.4]heptane-6-carbonyl)piperidine-4-carbonyl)-1H-pyrrolo[2,3-c]pyridin-1-yl)-5-fluoro-N,N-diisopropylbenzamide], the half-inhibitory concentration (IC50) was 103 nM in series [1], over 40000 nM in series [2] and 50 nM in series [3]. Besides, in series [4] (setting [5]), the microsomal CLint at 1 µM is 51 µL/min/mg.
With `CC(C)N(C(=O)c1cc(F)ccc1-n1cc(C(=O)C2CCN(C(=O)[C@@H]3CCC(C)(C)N3)CC2)c2ccncc21)C(C)C` [Example 27, (S)-2-(3-(1-(5,5-Dimethylpyrrolidine-2-carbonyl)piperidine-4-carbonyl)-1H-pyrrolo[2,3-c]pyridin-1-yl)-5-fluoro-N,N-diisopropylbenzamide], the IC50 in series [1] is 38 nM; in series [2], over 40000 nM; in series [3] it was 35 nM. Moreover, the microsomal CLint at 1 µM in series [4] (pH 7.4, HLM CLint) is 46 µL/min/mg.
Taken in the same sequence, the figures for `CCN(C(=O)c1cc(F)ccc1-n1cc(C(=O)C2CCN(C(=O)[C@H]3NC[C@@H]4C[C@@H]43)CC2)c2ccncc21)C(C)C` [Example 28, 2-(3-(1-((1S,2S,5R)-3-Azabicyclo[3.1.0]hexane-2-carbonyl)piperidine-4-carbonyl)-1H-pyrrolo[2,3-c]pyridin-1-yl)-N-ethyl-5-fluoro-N-isopropylbenzamide] were 39 nM, over 40000 nM, 34 nM and 41 µL/min/mg.
Regarding `CCN(C(=O)c1cc(F)ccc1-n1cc(C(=O)C2CCN(C(=O)[C@H]3N[C@H]4C[C@@H]3[C@@H](F)C4)CC2)c2ccncc21)C(C)C` [Example 30, N-Ethyl-5-fluoro-2-(3-(1-((1S,3S,4S,5S)-5-fluoro-2-azabicyclo[2.2.1]heptane-3-carbonyl)piperidine-4-carbonyl)-1H-pyrrolo[2,3-c]pyridin-1-yl)-N-isopropylbenzamide], the IC50 is 44 nM in series [1], over 40000 nM in series [2] and 33 nM in series [3]. The microsomal CLint at 1 µM in series [4] (pH 7.4, HLM CLint) was 54 µL/min/mg.
Regarding `CCN(C(=O)c1cc(F)ccc1-n1cc(C(=O)C2CCN(C(=O)[C@H]3N[C@@H]4CC[C@H]3C4)CC2)c2ccncc21)C(C)C` [Example 31, 2-(3-(1-((1R,3S,4S)-2-Azabicyclo[2.2.1]heptane-3-carbonyl)piperidine-4-carbonyl)-1H-pyrrolo[2,3-c]pyridin-1-yl)-N-ethyl-5-fluoro-N-isopropylbenzamide], the figures for the IC50 in series [1], in series [2] and in series [3] were 38 nM, over 40000 nM and 32 nM, respectively. This compound also registered a microsomal CLint at 1 µM in series [4] (pH 7.4, HLM CLint) of 23 µL/min/mg.
With `C[C@@H]1CCC[C@H](C)N1C(=O)c1cc(F)ccc1-n1cc(C(=O)C2CCN(C(=O)[C@H]3N[C@@H]4CC[C@H]3C4)CC2)c2ccncc21` [Example 33, (1-((1R,3S,4S)-2-Azabicyclo[2.2.1]heptane-3-carbonyl)piperidin-4-yl)(1-(2-((2R,6S)-2,6-dimethylpiperidine-1-carbonyl)-4-fluorophenyl)-1H-pyrrolo[2,3-c]pyridin-3-yl)methanone], the IC50 in series [1] is 111 nM; in series [2] it was over 40000 nM; in series [3] it was 103 nM. In series [4] (pH 7.4, HLM CLint), the microsomal CLint at 1 µM worked out at 50 µL/min/mg.
For `C[C@@H]1COC[C@@H](C)N1C(=O)c1cc(F)ccc1-n1cc(C(=O)C2CCN(C(=O)[C@H]3N[C@@H]4CC[C@H]3C4)CC2)c2ccncc21` [Example 34, (1-((1R,3S,4S)-2-Azabicyclo[2.2.1]heptane-3-carbonyl)piperidin-4-yl)(1-(2-((3R,5R)-3,5-dimethylmorpholine-4-carbonyl)-4-fluorophenyl)-1H-pyrrolo[2,3-c]pyridin-3-yl)methanone], the IC50 in series [1] was 62 nM; in series [2], over 40000 nM; in series [3], 39 nM. This compound yielded a microsomal CLint at 1 µM in series [4] (pH 7.4, HLM CLint) of 11 µL/min/mg.
As for `CC(C)n1nccc1-c1cc(F)ccc1-n1cc(C(=O)C2CCN(C(=O)[C@H]3N[C@@H]4CC[C@H]3C4)CC2)c2ccncc21` [Example 36, (1-((1R,3S,4S)-2-Azabicyclo[2.2.1]heptane-3-carbonyl)piperidin-4-yl)(1-(4-fluoro-2-(1-isopropyl-1H-pyrazol-5-yl)phenyl)-1H-pyrrolo[2,3-c]pyridin-3-yl)methanone], the concentration for half-maximal inhibition (IC50) in series [1] is 60 nM; in series [2], over 40000 nM; in series [3] it was 43 nM. In series [4] (pH 7.4, HLM CLint), the microsomal CLint at 1 µM stood at 58 µL/min/mg.
Consider `CC(C)c1ncncc1-c1cc(F)ccc1-n1cc(C(=O)C2CCN(C(=O)[C@H]3N[C@@H]4CC[C@H]3C4)CC2)c2ccncc21` [Example 37, (1-((1R,3S,4S)-2-Azabicyclo[2.2.1]heptane-3-carbonyl)piperidin-4-yl)(1-(4-fluoro-2-(4-isopropylpyrimidin-5-yl)phenyl)-1H-pyrrolo[2,3-c]pyridin-3-yl)methanone], for which the 50% inhibitory concentration (IC50) in series [1] was 68 nM; in series [2] it was over 40000 nM; in series [3], 34 nM. Moreover, the microsomal CLint at 1 µM in series [4] (pH 7.4, HLM CLint) was 52 µL/min/mg.
Take `CC(C)c1ncccc1-c1cc(F)ccc1-n1cc(C(=O)C2CCN(C(=O)[C@H]3N[C@@H]4CC[C@H]3C4)CC2)c2ccncc21` [Example 38, (1-((1R,3S,4S)-2-Azabicyclo[2.2.1]heptane-3-carbonyl)piperidin-4-yl)(1-(4-fluoro-2-(2-isopropylpyridin-3-yl)phenyl)-1H-pyrrolo[2,3-c]pyridin-3-yl)methanone]: the IC50 in series [1] was 27 nM; in series [2], over 40000 nM; in series [3], 24 nM. In series [4] (pH 7.4, HLM CLint), this compound displayed a microsomal CLint at 1 µM of 131 µL/min/mg.
`O=C(c1cn(-c2ccc(F)cc2-c2cncnc2C2CC2)c2cnccc12)C1CCN(C(=O)[C@H]2N[C@@H]3CC[C@H]2C3)CC1` [Example 40, (1-((1R,3S,4S)-2-Azabicyclo[2.2.1]heptane-3-carbonyl)piperidin-4-yl)(1-(2-(4-cyclopropylpyrimidin-5-yl)-4-fluorophenyl)-1H-pyrrolo[2,3-c]pyridin-3-yl)methanone]: the IC50 in series [1] is 61 nM; in series [2], over 40000 nM; in series [3] it was 37 nM. The same compound gave a microsomal CLint at 1 µM in series [4] (pH 7.4, HLM CLint) of 18 µL/min/mg.

For orientation: IC50 means the concentration needed to halve the response being measured.

Source of the values: patent US20240335431A1, “1-H-PYRROLO[2,3-c]PYRIDINE COMPOUNDS” (Acerta Pharma B.V., priority 2023, published 2024).
